SMILES strings stand for the structures. Where two headings read alike, the source gives them in different places.

Test [1] has as its system compound 48/80-induced lethality. The test is described as follows: Protection of rats from compound 48/80-induced lethality. To be noted: Rattus norvegicus, 4 h, read-out: Compound 48/80 lethality test in rats-ED50. In kind it is in vivo, rat (male, inbred Wistar strain). As to the method: Protection of rats from compound 48/80-induced lethality
The protection from compound 48/80-induced lethal circulatory collapse appears to be a simple way of evaluating quantitatively the antihistaminic activity of test compounds. Male rats of an inbred Wistar strain, weighing 240-260 g were used in the experiment. After overnight starvation the rats were transferred to conditioned laboratories (temp.=21±1° C., relative humidity=65±5%).
The rats were treated subcutaneously or orally with a test compound or with the solvent (NaCl solution, 0.9%). […] Survival after 4 hours is therefore considered to be a safe criterion of a protective effect of drug administration.
The ED50 -values of the compounds of formula (I) are listed in the first column of table 1. Said ED50 -values are the values in mg/kg body weight at which the tested compounds protect 50% of the tested animals against compound 48/80-induced lethality.

In another test the test system is serotonin. The test is described as follows: Antagonistic activity on the effects of serotonin in the gastric lesion test (lesions induced by compound 48/80). Format: in vivo, rat (male, Wistar inbred strain). An excerpt: The compounds of formula (I) and the pharmaceutically acceptable acid addition salts thereof are also potent serotonin-antagonists. The potency of the subject compounds as serotonin-antagonists is clearly evidenced by the results obtained in the following tests wherein the antagonistic activity of the subject compounds on the effect of serotonin is examined.
Antagonistic activity on the effects of serotonin in the gastric lesion test
Comound 48/80 (a mixture of oligomers obtained by condensation of 4-methoxy-N-methylbenzeneethanamine and formaldehyde) is a potent releaser of vasoactive amines from endogenous stores such as, for example, histamine and serotonin. […] The shock, followed by dead, can be avoided if the rats are pretreated with a classical H 1 antagonist.
Male rats of a Wistar inbred strain, weighing 220-250 g, were starved overnight, water being available ad libitum. The test compounds were administered orally as a solution or as a suspension in aqueous medium. A control rat and a "blank" rat received the test compound. One hour later 5-[4-(diphenylmethyl)-1-piperazinylmethyl]-1-methyl-1H-benzimidazole-2-methanol was administered subcutaneously to all rats at the dose of 2.5 mg/kg.
Four hours after the intravenous injection of compound 48/80, the rats were decapitated and the stomachs were removed. Subsequently the stomachs ere inspected for distension and contents (blood, fluid, food) and thoroughly rinsed. The macroscopic lesions were scored from 0 to +++, 0 corresponding to complete absence of visible lesions and the highest score corresponding to reddish rough patches covering more than half the glandular area.

Setting [2] is: Rattus norvegicus, po, 4 h; read-out: gastric lesion test ED50 (distension of the stomach and lesions in the glandular area completely absent in 50% of rats).
The mark [3] stands for this setting: Rattus norvegicus, po, 4 h, read-out: gastric lesion test ED50 (distension of the stomach and lesions in the glandular area completely absent in 50% of rats).

For `Cc1nc2n(c(=O)c1CCN1CCC(Nc3nc4ccccc4n3Cc3ccc(F)cc3)CC1)CCS2` [Compound 17], the figures for the ED50 (in test [1]; in the test on serotonin (setting [2])) were 0.31 mg/kg and 0.63 mg/kg, respectively.

Take `Cc1nc2n(c(=O)c1CCN1CCC(Nc3nc4ccccc4n3Cc3ccco3)CC1)CCS2` [Compound 18]: the ED50 in test [1] worked out at 0.08 mg/kg; in the test with serotonin (setting [2]) it was 0.16 mg/kg.

Take `Cc1nc2ccccn2c(=O)c1CCN1CCC(Nc2nc3ccccc3n2Cc2cscn2)CC1` [Compound 19]: the values for the ED50 (in test [1]; in the test on serotonin (setting [2])) were 0.08 mg/kg and 0.01 mg/kg, respectively.

Turning to `Cc1ccc2nc(C)c(CCN3CCC(Nc4nc5cccnc5n4Cc4ccco4)CC3)c(=O)n2c1` [Compound 20], the figures for the ED50 (in test [1]; in the test with serotonin (setting [2])) were 0.04 mg/kg and 0.63 mg/kg, respectively.

For `Cc1nc2ccc(Cl)cn2c(=O)c1CCN1CCC(Nc2nc3cccnc3n2Cc2ccco2)CC1` [Compound 21], the ED50 in test [1] worked out at 0.04 mg/kg; in the test with serotonin (setting [2]), 0.63 mg/kg.

Take `O=c1[nH]c2ccccc2c(=O)n1CCN1CCC(Nc2nc3ccccc3n2Cc2ccco2)CC1` [Compound 24]: the results for the ED50 (in test [1]; in the test with serotonin (setting [2])) were 0.08 mg/kg and 0.63 mg/kg, respectively.

Consider `Cc1nc2sccn2c(=O)c1CCN1CCC(Nc2nc3cccnc3n2Cc2ccco2)CC1` [Compound 28], for which the ED50 was found to be 0.04 mg/kg in test [1] and 0.16 mg/kg with serotonin (setting [3]).

Take `Cc1nc2sccn2c(=O)c1CCN1CCC(Nc2nc3ccccc3n2Cc2ccco2)CC1` [Compound 31]: the results for the ED50 (in test [1]; with serotonin (setting [2])) were 0.04 mg/kg and 0.02 mg/kg, respectively.

With `Cn1c(=O)n(CCN2CCC(Nc3nc4ccccc4n3Cc3ccco3)CC2)c(=O)c2ccccc21` [Compound 34], the ED50 in test [1] is 0.08 mg/kg; in the test on serotonin (setting [2]), 0.16 mg/kg.

As to `Cn1c(=O)c2c(ncn2CCN2CCC(Nc3nc4ccccc4n3Cc3ccco3)CC2)n(C)c1=O` [Compound 39], the ED50 in test [1] amounted to 0.16 mg/kg; with serotonin (setting [2]), 0.63 mg/kg.

With `Fc1ccc(Cn2c(NC3CCN(Cc4cn5cccnc5n4)CC3)nc3ccccc32)cc1` [Compound 40], the ED50 (in test [1]; in the test with serotonin (setting [3])) was 0.16 mg/kg each time.

Regarding `Fc1ccc(Cn2c(NC3CCN(Cc4cn5ccccc5n4)CC3)nc3ccccc32)cc1` [Compound 41], the ED50 in test [1] was found to be 0.16 mg/kg; in the test on serotonin (setting [2]) it was 0.63 mg/kg.

For `Fc1ccc(Cn2c(NC3CCN(Cc4cn5ccncc5n4)CC3)nc3ccccc32)cc1` [Compound 49], the ED50 is 0.16 mg/kg in test [1] and 0.63 mg/kg in the test on serotonin (setting [2]).

Regarding `Cc1nc2ccccn2c(=O)c1CCN1CCC(Nc2nc3ccccc3n2Cc2cccs2)CC1` [Compound 52], the figures for the ED50 (in test [1]; in the test on serotonin (setting [3])) were 0.31 mg/kg and 1.25 mg/kg, respectively.

In the case of `Cc1nc2ccccn2c(=O)c1CCN1CCC(Nc2nc3cccnc3n2Cc2ccccn2)CC1` [Compound 55], the ED50 in test [1] was 0.08 mg/kg; in the test on serotonin (setting [2]), 0.16 mg/kg.

For `Cc1nc2n(c(=O)c1CCN1CCC(Nc3nc4cccnc4n3Cc3ccco3)CC1)CC(C)CC2` (centres unmarked) [Compound 58], the ED50 in test [1] amounted to 0.04 mg/kg; with serotonin (setting [2]), 0.63 mg/kg.

With `Cc1nc2n(c(=O)c1CCN1CCC(Nc3nc4ccccc4n3Cc3cccs3)CC1)CCCC2` [Compound 59], the ED50 is 0.08 mg/kg in test [1] and 0.31 mg/kg in the test with serotonin (setting [2]).

On to `Cc1nc2n(c(=O)c1CCN1CCC(Nc3nc4cccnc4n3Cc3ccc(F)cc3)CC1)CCCC2` [Compound 61], for which the values for the ED50 (in test [1]; in the test on serotonin (setting [2])) were 0.04 mg/kg and 0.31 mg/kg, respectively.

As for `Cc1nc2n(c(=O)c1CCN1CCC(Nc3nc4ccccc4n3Cc3cscn3)CC1)CCCC2` [Compound 62], the ED50 in test [1] was 0.04 mg/kg; with serotonin (setting [3]), 0.63 mg/kg.

Consider `Cc1nc2n(c(=O)c1CCN1CCC(Nc3nc4cccnc4n3Cc3ccco3)CC1)C(C)CC(C)C2` (centres unmarked) [Compound 63], for which the ED50 turned out to be 0.08 mg/kg in test [1] and 0.63 mg/kg with serotonin (setting [2]).

In the case of `Cc1nc2ccccn2c(=O)c1CCN1CCC(Nc2nc3cc(F)c(F)cc3n2Cc2ccc(F)cc2)CC1` [Compound 70], the ED50 in test [1] was found to be 0.31 mg/kg; in the test with serotonin (setting [2]), 0.63 mg/kg.

On to `Cc1ccn2c(=O)c(CCN3CCC(Nc4nc5cccnc5n4Cc4ccco4)CC3)c(C)nc2c1` [Compound 74], for which the figures for the ED50 (in test [1]; in the test with serotonin (setting [2])) were 0.04 mg/kg and 0.16 mg/kg, respectively.

With `Cc1cc(C)n2c(=O)c(CCN3CCC(Nc4nc5cccnc5n4Cc4ccco4)CC3)c(C)nc2c1` [Compound 77], the ED50 in test [1] was determined as 0.16 mg/kg; in the test on serotonin (setting [2]), 0.31 mg/kg.

As for `OCCn1cnc2c(NCCN3CCC(Nc4nc5ccccc5n4Cc4ccc(F)cc4)CC3)ncnc21` [Compound 93, 6-[[2-[4-[[1-[(4-fluorophenyl)methyl]-1H-benzimidazol-2-yl]amino]-1-piperidinyl]ethyl]amino]-9H-purine-9-ethanol], the ED50 in test [1] worked out at 0.08 mg/kg; in the test on serotonin (setting [2]), 0.16 mg/kg.

With `Cn1cnc2c(NCCN3CCC(Nc4nc5ccccc5n4Cc4ccc(F)cc4)CC3)ncnc21` [Compound 94], the ED50 was 0.31 mg/kg in test [1] and 0.63 mg/kg in the test with serotonin (setting [2]).

Regarding `Fc1ccc(Cn2c(NC3CCN(CCNc4ncnc5c4ncn5Cc4ccccc4)CC3)nc3ccccc32)cc1` [Compound 95], the values for the ED50 (in test [1]; with serotonin (setting [2])) were 0.16 mg/kg and 0.63 mg/kg, respectively.

As to `Fc1ccc(Cn2c(NC3CCN(CCNc4ncnc5[nH]cnc45)CC3)nc3ccccc32)cc1` [Compound 97], the ED50 was 0.08 mg/kg in test [1] and 0.04 mg/kg in the test on serotonin (setting [2]).

With `Fc1ccc(Cn2c(NC3CCN(CCNc4nc5cccnc5s4)CC3)nc3ccccc32)cc1` [Compound 103, N-[2-[4-[[1-[(4-fluorophenyl)methyl]-1H-benzimidazol-2-yl]amino]-1-piperidinyl]ethyl]thiazolo[5,4-b]pyridin-2-amine], the ED50 in test [1] is 0.16 mg/kg; with serotonin (setting [2]) it was 0.63 mg/kg.

On to `Fc1ccc(Cn2c(NC3CCN(CCNc4nc5cnccc5s4)CC3)nc3ccccc32)cc1` [Compound 104, N-[2-[4-[[1-[(4-fluorophenyl)methyl]-1H-benzimidazol-2-yl]amino]-1-piperidinyl]ethyl]thiazolo[4,5-c]pyridin-2-amine], for which the figures for the ED50 (in test [1]; in the test with serotonin (setting [2])) were 0.16 mg/kg and 0.31 mg/kg, respectively.

For the compound `Cn1c(NCCN2CCC(Nc3nc4ccccc4n3Cc3ccc(F)cc3)CC2)nc2cnccc21.O` [Compound 108, N-[2-[4-[[1-[(4-fluorophenyl)methyl]-1H-benzimidazol-2-yl]amino]-1-piperidinyl]ethyl]-1-methyl-1H-imidazo[4,5-c]pyridin-2-amine monohydrate], the ED50 in test [1] worked out at 0.04 mg/kg; in the test on serotonin (setting [2]) it was 0.16 mg/kg.

Consider `Fc1ccc(Cn2c(NC3CCN(CCNc4nc5cnccc5[nH]4)CC3)nc3ccccc32)cc1` [Compound 109], for which the ED50 (in test [1]; in the test with serotonin (setting [2])) was 0.04 mg/kg in each case.

On to `Fc1ccc(Cn2c(NC3CCN(CCNc4nc5ncccc5[nH]4)CC3)nc3ccccc32)cc1` [Compound 110], for which the ED50 in test [1] was found to be 0.16 mg/kg; in the test on serotonin (setting [2]) it was 0.31 mg/kg.

For the compound `c1coc(Cn2c(NC3CCN(CCNc4nc5cnccc5[nH]4)CC3)nc3ccccc32)c1` [Compound 111], the ED50 was determined as 0.02 mg/kg in test [1] and 0.08 mg/kg in the test on serotonin (setting [2]).

For the compound `Fc1ccc(Cn2c(NC3CCN(CCNc4nc5cnccc5[nH]4)CC3)nc3ncccc32)cc1` [Compound 112], the ED50 in test [1] turned out to be 0.02 mg/kg; with serotonin (setting [2]), 0.16 mg/kg.

Turning to `Fc1ccc(Cn2c(NC3CCN(CCNc4nc5cnccc5[nH]4)CC3)nc3cccnc32)cc1` [Compound 114], the ED50 in test [1] was determined as 0.02 mg/kg; in the test with serotonin (setting [2]), 0.63 mg/kg.

Take `c1ccc(Cn2c(NC3CCN(CCNc4nc5cnccc5[nH]4)CC3)nc3ccccc32)nc1` [Compound 115]: the ED50 in test [1] came to 0.02 mg/kg; in the test with serotonin (setting [3]) it was 0.16 mg/kg.

In the case of `c1csc(Cn2c(NC3CCN(CCNc4nc5cnccc5[nH]4)CC3)nc3ccccc32)c1` [Compound 117], the ED50 in test [1] came to 0.02 mg/kg; in the test with serotonin (setting [2]), 0.31 mg/kg.

Take `c1coc(Cn2c(NC3CCN(CCNc4nc5cnccc5[nH]4)CC3)nc3cccnc32)c1` [Compound 119]: the ED50 in test [1] was 0.04 mg/kg; in the test with serotonin (setting [2]), 0.63 mg/kg.

On to `Fc1ccc(Cn2c(NC3CCN(CCCCNc4nc5cnccc5[nH]4)CC3)nc3ccccc32)cc1` [Compound 121, N-[4-[4-[[1-[(4-fluorophenyl)methyl]-1H-benzimidazol-2-yl]amino]-1-piperidinyl]butyl]-1H-imidazo[4,5-c]pyridin-2-amine], for which the ED50 (in test [1]; with serotonin (setting [2])) was 0.02 mg/kg each time.

With `Fc1ccc(Cn2c(NC3CCN(CCCNc4nc5cnccc5[nH]4)CC3)nc3ccccc32)cc1` [Compound 122, N-[3-[4-[[1-[(4-fluorophenyl)methyl]-1H-benzimidazol-2-yl]amino]-1-piperidinyl]propyl]-1H-imidazo[4,5-c]pyridin-2-amine ethanedioate(2:7)], the ED50 worked out at 0.02 mg/kg in test [1] and 0.63 mg/kg in the test on serotonin (setting [2]).

Values taken from patent US4695569A, “Bicyclic heterocyclyl containing N-(bicyclic heterocyclyl)-4-piperidinamines” (Janssen Pharmaceutica N.V., priority 1987, dated 1987).
